We go through three molecules from BindingDB's records for doi:10.1021/bi401354d (Pfizer, 2013).

The structures appear in SMILES notation.

For the assay, the target named is T1, Myeloperoxidase (Homo sapiens, UniProt P05164).
T1 sequence (P05164 whole entry): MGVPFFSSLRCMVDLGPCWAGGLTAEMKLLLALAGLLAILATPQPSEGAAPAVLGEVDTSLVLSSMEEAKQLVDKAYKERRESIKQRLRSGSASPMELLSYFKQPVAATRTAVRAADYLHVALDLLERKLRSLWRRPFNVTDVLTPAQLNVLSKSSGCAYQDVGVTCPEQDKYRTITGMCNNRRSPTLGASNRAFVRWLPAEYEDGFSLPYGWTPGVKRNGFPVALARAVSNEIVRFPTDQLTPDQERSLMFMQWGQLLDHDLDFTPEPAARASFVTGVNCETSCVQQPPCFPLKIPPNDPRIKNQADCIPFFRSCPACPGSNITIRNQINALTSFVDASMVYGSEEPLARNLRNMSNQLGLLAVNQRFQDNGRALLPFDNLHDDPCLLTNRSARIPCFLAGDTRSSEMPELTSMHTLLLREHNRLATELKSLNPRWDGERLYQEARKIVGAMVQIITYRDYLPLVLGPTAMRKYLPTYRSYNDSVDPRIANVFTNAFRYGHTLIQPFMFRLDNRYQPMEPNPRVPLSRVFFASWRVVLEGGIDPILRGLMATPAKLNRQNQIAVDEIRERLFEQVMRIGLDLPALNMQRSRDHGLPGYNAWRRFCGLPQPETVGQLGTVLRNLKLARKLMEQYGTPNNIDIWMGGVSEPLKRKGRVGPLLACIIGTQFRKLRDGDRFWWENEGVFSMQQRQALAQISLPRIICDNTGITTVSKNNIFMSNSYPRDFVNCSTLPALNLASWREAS
The experiment in a line: MPO Activity Assay. Particulars: pH 7.4. On the procedure: Assay mixtures (100 µL) contained 50 mM NaPi (pH 7.4), 150 mM NaCl, 1 mM DTPA, 2% DMSO, the indicated concentrations of H2O2, and Amplex Red. The reactions were initiated by the addition of 100 pM MPO. The fluorescent changes were measured at 530 (excitation) and 580 nm (emission).

Take `CCOC(C)Cn1c(=S)[nH]c(=O)c2[nH]cnc21` (stereo not drawn) [3‐(2‐ethoxypropyl)‐2‐sulfanylidene‐1,9‐ dihydropurin‐6‐one (A)]: the Ki (commonly the dissociation constant of the complex between target and ligand, obtained from inhibition or displacement) was 413 nM. Then `CCO[C@H](C)Cn1c(=S)[nH]c(=O)c2[nH]cnc21` [3‐[(2R)‐2‐ethoxypropyl]‐2‐sulfanylidene‐1,9‐ dihydropurin‐6‐one (C)], with 546 nM; and `CCO[C@@H](C)Cn1c(=S)[nH]c(=O)c2[nH]cnc21` [3‐[(2S)‐2‐ethoxypropyl]‐2‐sulfanylidene‐1,9‐ dihydropurin‐6‐one (D)], with 429 nM.
